Laboratory results published in PubChem BioAssay (NCI).
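Five concentrations, 48 hours, 96-well plates. GI50 marks 50% less growth. TGI marks complete inhibition of growth.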

Key:
Experiment in all cases: NCI tumour cell line growth inhibition, 48 h
A498 renal = tested on: A498 renal
NCI-H522 lung = tested on: NCI-H522 lung
T-47D breast = tested on: T-47D breast
OVCAR-8 ovarian = tested on: OVCAR-8 ovarian
SF-295 CNS = tested on: SF-295 CNS
SNB-19 CNS = tested on: SNB-19 CNS
HCT-116 colon = tested on: HCT-116 colon
SK-OV-3 ovarian = tested on: SK-OV-3 ovarian
BT-549 breast = tested on: BT-549 breast
K-562 leukemia = tested on: K-562 leukemia

Compound | GI50 (A498 renal) | TGI (A498 renal) | GI50 (NCI-H522 lung) | TGI (NCI-H522 lung) | GI50 (T-47D breast) | TGI (T-47D breast) | GI50 (OVCAR-8 ovarian) | TGI (OVCAR-8 ovarian) | GI50 (SF-295 CNS) | TGI (SF-295 CNS) | GI50 (SNB-19 CNS) | TGI (SNB-19 CNS) | GI50 (HCT-116 colon) | TGI (HCT-116 colon) | GI50 (SK-OV-3 ovarian) | TGI (SK-OV-3 ovarian) | GI50 (BT-549 breast) | TGI (BT-549 breast) | GI50 (K-562 leukemia) | TGI (K-562 leukemia)
O=C1c2ccccc2C(=O)c2c(NCCN=Cc3ccccc3O)cccc21 | 1.87 µM | 6.67 µM | 6.94 µM | > 25.6 µM | 3.46 µM | > 47.1 µM | 4.93 µM | 22.1 µM | 2.43 µM | 5.01 µM | 4.31 µM | > 54.5 µM | 3.64 µM | 15.3 µM | 3.54 µM | > 48.2 µM | 2.81 µM | 8.51 µM | 2.47 µM | > 45.1 µM
Cc1ccc2occ/c(=N\Nc3ccccc3)c2c1 | – | > 100 µM | – | > 100 µM | – | 30.5 µM | – | > 100 µM | – | > 100 µM | – | > 100 µM | – | > 100 µM | – | > 100 µM | – | > 100 µM | – | > 100 µM
O=C(CCN1CCOCC1)Nc1cccc(-n2cc(-c3ccncc3)c(-c3ccc(Cl)c(O)c3)n2)c1 | 1.52 µM | 5.48 µM | 0.448 µM | 5.4 µM | 1.74 µM | 9.75 µM | 3.71 µM | 57.5 µM | 1.31 µM | 3.38 µM | 4.87 µM | 22.6 µM | 3.04 µM | 12 µM | 3.51 µM | 14.4 µM | 4.12 µM | 18.1 µM | 1.76 µM | 11.4 µM
Cc1noc2c1-c1ccccc1C(c1ccc(Cl)cc1)=N[C@H]2CC(N)=O | 0.235 µM | 15.5 µM | 8.2 µM | > 100 µM | 3.48 µM | > 100 µM | 15.2 µM | > 100 µM | 4.71 µM | > 100 µM | 11 µM | > 100 µM | 5.34 µM | > 100 µM | 1.54 µM | > 65.7 µM | 10.9 µM | > 100 µM | 4.67 µM | > 100 µM
CNC(C)[C@H]1CCC2C3CC=C4C(=O)[C@@H](NC(=O)C=C(C)C)CC[C@]4(C)C3CC[C@@]21C (some centres not stated) | 1.3 µM | 8.26 µM | 2.27 µM | 7.55 µM | 0.925 µM | 5.05 µM | 3.91 µM | 20.2 µM | 1.63 µM | 4.41 µM | 5.26 µM | 17.4 µM | 1.09 µM | 2.53 µM | 2.75 µM | 9.5 µM | 2.34 µM | 8.42 µM | 0.478 µM | 2.19 µM
COc1cc(/C=C2\CCC/C(=C\c3ccc(OCC4CO4)c(OC)c3)C2=O)ccc1OCC1CO1 (configuration not stated) | 3.62 µM | 10.1 µM | 2.47 µM | 6 µM | 2.98 µM | 12.2 µM | 2.1 µM | 9.11 µM | 4.35 µM | 84.4 µM | 4.73 µM | 76.4 µM | 1.85 µM | 6.01 µM | 3.54 µM | 10.7 µM | 2.28 µM | 5.3 µM | 3.46 µM | > 100 µM
COc1cc(C(=O)O[C@H](C(N)=O)[C@]2(C)CO2)c2cccc(C)c2c1 | 4.31 µM | 15.4 µM | < 0.0342 µM | 0.638 µM | 1.11 µM | 8.1 µM | < 0.01 µM | 0.438 µM | < 0.0417 µM | 1.84 µM | 1.21 µM | 5.02 µM | 0.431 µM | 2.32 µM | 1.45 µM | 7.99 µM | < 0.0418 µM | 0.655 µM | – | –
COc1ccc(-c2noc(N)c2-c2cc(OC)c3c(c2)OCO3)cc1 | 1.24 µM | 7.55 µM | 1.24 µM | – | 3.61 µM | > 54.8 µM | 3.98 µM | > 100 µM | 2.64 µM | 28.6 µM | 10.6 µM | > 100 µM | 2.4 µM | > 48.3 µM | 4.54 µM | > 38.3 µM | 3.01 µM | 61.9 µM | 0.405 µM | > 100 µM
Clc1nc(Cl)c2ncn(Cc3ccccc3Cn3cnc4c(Cl)nc(Cl)nc43)c2n1 | 11.2 µM | 27.7 µM | 4.28 µM | 13.7 µM | 1.73 µM | 4.71 µM | 2.9 µM | 9.12 µM | 7.05 µM | 22.4 µM | 2.9 µM | > 26.1 µM | 2.06 µM | 5.98 µM | 15.3 µM | 33.7 µM | 0.165 µM | 1.52 µM | 2.6 µM | 6.8 µM
